{"source": "patent US8263613B2", "about": "“Salts, prodrugs and polymorphs of fab I inhibitors” (Affinium Pharmaceuticals, Inc., priority 2007, dated 2012)", "key": {"[1]": {"assay": "Solubility in cyclodextrins", "format": "physicochemical", "conditions": "for solubility: aqueous with cosolvent or surfactant or cyclodextrin, thermodynamic from solid"}, "[2]": {"assay": "Pharmacokinetic study in male rats, single oral dose in 80% PEG400", "conditions": "rat, in vivo"}, "[3]": {"assay": "Oral pharmacokinetic study in male rats (oral gavage)", "format": "in vivo, rat", "conditions": "for AUC(0-t) / Cmax: male, CD, rat, po", "method": "Compound A (free base) and B (toslyate monohydrate salt of compound A) was administered to male rats, strain CD®, via oral gavage using 1% Poloxamer 407 or 0.5% carboxymethyl cellulose (CMC) as the vehicle (Table 1). All doses were calculated as free base equivalents.\nFor each dosing group blood was collected from 3 animals at each of the following time points: 0, 0.5, 1, 2, 4, 6, 8, 10, 12, 16, 24, and 48 hours post dose. Plasma was prepared using standard techniques with sodium heparin as anti-coagulant. The Compound A and B plasma concentrations were determined using a GLP-validated LC/MS/MS bioanalytical method. Pharmacokinetic analyses were performed using PK Solutions 2.0™ or WinNonLin 5.1."}, "[4]": {"test_system": "Staphylococcus aureus ATCC 29213", "assay": "Mouse thigh abscess infection model", "format": "in vivo", "conditions": "for ED50: Staphylococcus aureus, ATCC29213; for ED50 / ED80 / Static dose: mice, oral, Inhibitory Effect Sigmoid Emax Model fit; for Average Change logCFU/thigh: neutropenic mice, 6 hours post dose, vs time 0 controls", "method": "Compound A (free base) unmilled, and the tosylate salt of Compound A milled were tested in the same mouse thigh abscess model following single oral doses in 0.5% carboxymethyl cellulose. Mice (6 per dosing group) were rendered neutropentic, and the thigh of each mouse was injected with 1×10^5 colony forming units (CFU) of Staphylococcus aureus ATCC 29213. Two hours post infection, mice were dosed with the drug orally, and at 6 hours post dose, bacterial viable counts where determined from the thighs of all the mice. Efficacy was calculated as the average change in CFU/thigh compared to time 0 (time of dosing) controls."}, "[5]": {"conditions": "male, po, 30 mg/kg, single oral dose 30 mg/kg in 80% PEG400, particle state Milled"}, "[6]": {"conditions": "male, po, 30 mg/kg, single oral dose 30 mg/kg in 80% PEG400, particle state Unmilled"}, "[7]": {"conditions": "plasma, 10 mg/kg, 10 mg/kg (free base equivalents), 0.5% CMC"}, "[8]": {"conditions": "plasma, 10 mg/kg, 10 mg/kg (free base equivalents), 1% Poloxamer 407"}, "[9]": {"conditions": "plasma, 30 mg/kg, 30 mg/kg (free base equivalents), 0.5% CMC"}, "[10]": {"conditions": "plasma, 75 mg/kg, 75 mg/kg (free base equivalents), 0.5% CMC"}, "[11]": {"conditions": "single oral dose 0.3 mg/kg in 0.5% carboxymethyl cellulose"}, "[12]": {"conditions": "single oral dose 1 mg/kg in 0.5% carboxymethyl cellulose"}, "[13]": {"conditions": "single oral dose 3 mg/kg in 0.5% carboxymethyl cellulose"}, "[14]": {"conditions": "single oral dose 10 mg/kg in 0.5% carboxymethyl cellulose"}, "[15]": {"conditions": "single oral dose 30 mg/kg in 0.5% carboxymethyl cellulose"}, "[16]": {"conditions": "single oral dose 30 mg/kg in 80% PEG400, particle state Unmilled"}, "[17]": {"conditions": "in vivo, 10 mg/kg, 10 mg/kg (free base equivalents), 0.5% CMC"}, "[18]": {"conditions": "in vivo, 10 mg/kg, 10 mg/kg (free base equivalents), 1% Poloxamer 407"}, "[19]": {"conditions": "in vivo, 30 mg/kg, 30 mg/kg (free base equivalents), 0.5% CMC"}, "[20]": {"conditions": "in vivo, 75 mg/kg, 75 mg/kg (free base equivalents), 0.5% CMC"}}, "note": "Where two headings read alike, the source gives them in different places.", "data": [{"smiles": "Cc1c(CN(C)C(=O)/C=C/c2cnc3c(c2)CCC(=O)N3)oc2ccccc12", "note": "[Free base, (E)-N-methyl-N-((3-methylbenzofuran-2-yl)methyl)-3-(7-oxo-5,6,7,8-tetrahydro-1,8-naphthyridin-3-yl)acrylamide]", "values": [{"measurement": "solubility", "setting": "[1]; 10% hydroxypropyl beta-cyclodextrin, cyclodextrin concentration 10%, shake-flask technique, read-out: Solubility in Hydroxypropyl Beta-Cyclodextrin", "result": 20, "unit": "µg/mL"}, {"measurement": "solubility", "setting": "[1]; 10% hydroxypropyl beta-cyclodextrin, cyclodextrin concentration 10%, evaporating an ethanol/water/DMA blend of cyclodextrin and API and reconstituting with water, read-out: Solubility in Hydroxypropyl Beta-Cyclodextrin", "result": 9, "unit": "µg/mL"}, {"measurement": "solubility", "setting": "[1]; 10% sulfobutyl ether beta-cyclodextrin, cyclodextrin concentration 10%, read-out: Solubility in Sulfobutyl Ether Beta-Cyclodextrin", "result": 7, "unit": "µg/mL"}, {"measurement": "AUC(0-inf)", "setting": "[2]; [5]", "result": 6570, "unit": "ng·h/mL"}, {"measurement": "AUC(0-t)", "setting": "[2]; [5]", "result": 6370, "unit": "ng·h/mL"}, {"measurement": "Cmax", "setting": "[2]; [5]", "result": 1970, "unit": "ng/mL"}, {"measurement": "half-life", "setting": "[2]; [5]", "result": 5.5, "unit": "h"}, {"measurement": "AUC(0-inf)", "setting": "[2]; [6]", "result": 1260, "unit": "ng·h/mL"}, {"measurement": "AUC(0-t)", "setting": "[2]; [6]", "result": 1160, "unit": "ng·h/mL"}, {"measurement": "Cmax", "setting": "[2]; [6]", "result": 421, "unit": "ng/mL"}, {"measurement": "half-life", "setting": "[2]; [6]", "result": 2, "unit": "h"}, {"measurement": "AUC(0-t)", "setting": "[3]; [7]", "result": 980, "unit": "ng·h/mL"}, {"measurement": "Cmax", "setting": "[3]; [7]", "result": 163, "unit": "ng/mL"}, {"measurement": "AUC(0-t)", "setting": "[3]; [8]", "result": 883, "unit": "ng·h/mL"}, {"measurement": "Cmax", "setting": "[3]; [8]", "result": 157, "unit": "ng/mL"}, {"measurement": "AUC(0-t)", "setting": "[3]; [9]", "result": 1620, "unit": "ng·h/mL"}, {"measurement": "Cmax", "setting": "[3]; [9]", "result": 176, "unit": "ng/mL"}, {"measurement": "AUC(0-t)", "setting": "[3]; [10]", "result": 2370, "unit": "ng·h/mL"}, {"measurement": "Cmax", "setting": "[3]; [10]", "result": 246, "unit": "ng/mL"}, {"measurement": "ED50", "setting": "[4]", "result": 4, "unit": "mg/kg"}, {"measurement": "ED80", "setting": "[4]", "result": 8.8, "unit": "mg/kg"}, {"measurement": "Static dose", "setting": "[4]", "result": 10.5, "unit": "mg/kg"}, {"measurement": "Average Change logCFU/thigh", "setting": "[4]; [11]", "result": 1.6, "unit": "logCFU/thigh"}, {"measurement": "Average Change logCFU/thigh", "setting": "[4]; [12]", "result": 1.35, "unit": "logCFU/thigh"}, {"measurement": "Average Change logCFU/thigh", "setting": "[4]; [13]", "result": 0.3, "unit": "logCFU/thigh"}, {"measurement": "Average Change logCFU/thigh", "setting": "[4]; [14]", "result": 0.36, "unit": "logCFU/thigh"}, {"measurement": "Average Change logCFU/thigh", "setting": "[4]; [15]", "result": "−0.29", "unit": "logCFU/thigh"}]}, {"smiles": "CS(=O)(=O)O.Cc1c(CN(C)C(=O)/C=C/c2cnc3c(c2)CCC(=O)N3)oc2ccccc12", "note": "[Mesylate, (E)-N-methyl-N-((3-methylbenzofuran-2-yl)methyl)-3-(7-oxo-5,6,7,8-tetrahydro-1,8-naphthyridin-3-yl)acrylamide methane sulfonate]", "values": [{"measurement": "AUC(0-inf)", "setting": "[2]; [5]", "result": 6040, "unit": "ng·h/mL"}, {"measurement": "AUC(0-t)", "setting": "[2]; [5]", "result": 5770, "unit": "ng·h/mL"}, {"measurement": "Cmax", "setting": "[2]; [5]", "result": 884, "unit": "ng/mL"}, {"measurement": "half-life", "setting": "[2]; [5]", "result": 5, "unit": "h"}]}, {"smiles": "Cc1c(CN(C)C(=O)/C=C/c2cnc3c(c2)CCC(=O)N3)oc2ccccc12.O=S(=O)(O)O", "note": "[Sulfate, (E)-N-methyl-N-((3-methylbenzofuran-2-yl)methyl)-3-(7-oxo-5,6,7,8-tetrahydro-1,8-naphthyridin-3-yl)acrylamide sulfate]", "values": [{"measurement": "AUC(0-inf)", "setting": "[2]; [16]", "result": 9970, "unit": "ng·h/mL"}, {"measurement": "AUC(0-t)", "setting": "[2]; [16]", "result": 9480, "unit": "ng·h/mL"}, {"measurement": "Cmax", "setting": "[2]; [16]", "result": 1940, "unit": "ng/mL"}, {"measurement": "half-life", "setting": "[2]; [16]", "result": 5.7, "unit": "h"}]}, {"smiles": "Cc1c(CN(C)C(=O)/C=C/c2cnc3c(c2)CCC(=O)N3)oc2ccccc12.Cc1ccc(S(=O)(=O)O)cc1.O", "note": "[Tosylate monohydrate milled, (E)-N-methyl-N-((3-methylbenzofuran-2-yl)methyl)-3-(7-oxo-5,6,7,8-tetrahydro-1,8-naphthyridin-3-yl)acrylamide Tosylate Monohydrate]", "values": [{"measurement": "solubility", "setting": "[1]; cyclodextrin concentration 10%, read-out: Solubility in Hydroxypropyl Beta-Cyclodextrin", "result": 26, "unit": "µg/mL"}, {"measurement": "solubility", "setting": "[1]; cyclodextrin concentration 10%, read-out: Solubility in Sulfobutyl Ether Beta-Cyclodextrin", "result": 67, "unit": "µg/mL"}, {"measurement": "solubility", "setting": "[1]; cyclodextrin concentration 40%, read-out: Solubility in Hydroxypropyl Beta-Cyclodextrin", "result": 370, "unit": "µg/mL"}, {"measurement": "solubility", "setting": "[1]; cyclodextrin concentration 40%, read-out: Solubility in Sulfobutyl Ether Beta-Cyclodextrin", "result": 4000, "unit": "µg/mL"}, {"measurement": "Solubility relative to the free base milled form", "setting": "[1]; sulfobutyl ether beta-cyclodextrin, cyclodextrin concentration 10%", "result": "approximately 10 fold"}, {"measurement": "Ratio of tosylate monohyrate/free base AUClast", "setting": "[3]; 10 mg/kg, 0.5% CMC", "result": 2.1}, {"measurement": "Ratio of tosylate monohyrate/free base Cmax", "setting": "[3]; 10 mg/kg, 0.5% CMC", "result": 2.1}, {"measurement": "Ratio of tosylate monohyrate/free base AUClast", "setting": "[3]; 10 mg/kg, 1% Poloxamer 407", "result": 3.0}, {"measurement": "Ratio of tosylate monohyrate/free base Cmax", "setting": "[3]; 10 mg/kg, 1% Poloxamer 407", "result": 2.2}, {"measurement": "Ratio of tosylate monohyrate/free base AUClast", "setting": "[3]; 30 mg/kg, 0.5% CMC", "result": 2.3}, {"measurement": "Ratio of tosylate monohyrate/free base Cmax", "setting": "[3]; 30 mg/kg, 0.5% CMC", "result": 2.5}, {"measurement": "Ratio of tosylate monohyrate/free base AUClast", "setting": "[3]; 75 mg/kg, 0.5% CMC", "result": 1.8}, {"measurement": "Ratio of tosylate monohyrate/free base Cmax", "setting": "[3]; 75 mg/kg, 0.5% CMC", "result": 2.4}, {"measurement": "AUC(0-t)", "setting": "[3]; [17]", "result": 2040, "unit": "ng·h/mL"}, {"measurement": "Cmax", "setting": "[3]; [17]", "result": 347, "unit": "ng/mL"}, {"measurement": "AUC(0-t)", "setting": "[3]; [18]", "result": 2660, "unit": "ng·h/mL"}, {"measurement": "Cmax", "setting": "[3]; [18]", "result": 348, "unit": "ng/mL"}, {"measurement": "AUC(0-t)", "setting": "[3]; [19]", "result": 3680, "unit": "ng·h/mL"}, {"measurement": "Cmax", "setting": "[3]; [19]", "result": 434, "unit": "ng/mL"}, {"measurement": "AUC(0-t)", "setting": "[3]; [20]", "result": 4260, "unit": "ng·h/mL"}, {"measurement": "Cmax", "setting": "[3]; [20]", "result": 595, "unit": "ng/mL"}]}, {"smiles": "Cc1c(CN(C)C(=O)/C=C/c2cnc3c(c2)CCC(=O)N3)oc2ccccc12.Cc1ccc(S(=O)(=O)O)cc1", "note": "[Tosylate, (E)-N-methyl-N-((3-methylbenzofuran-2-yl)methyl)-3-(7-oxo-5,6,7,8-tetrahydro-1,8-naphthyridin-3-yl)acrylamide p-toluene sulfonate]", "values": [{"measurement": "AUC(0-inf)", "setting": "[2]; [5]", "result": 9510, "unit": "ng·h/mL"}, {"measurement": "AUC(0-t)", "setting": "[2]; [5]", "result": 9460, "unit": "ng·h/mL"}, {"measurement": "Cmax", "setting": "[2]; [5]", "result": 1610, "unit": "ng/mL"}, {"measurement": "half-life", "setting": "[2]; [5]", "result": 3.5, "unit": "h"}, {"measurement": "ED50", "setting": "[4]", "result": 1.3, "unit": "mg/kg"}, {"measurement": "ED80", "setting": "[4]", "result": 3.4, "unit": "mg/kg"}, {"measurement": "Static dose", "setting": "[4]", "result": 2.4, "unit": "mg/kg"}, {"measurement": "Average Change logCFU/thigh", "setting": "[4]; [11]", "result": 1.31, "unit": "logCFU/thigh"}, {"measurement": "Average Change logCFU/thigh", "setting": "[4]; [12]", "result": 1.08, "unit": "logCFU/thigh"}, {"measurement": "Average Change logCFU/thigh", "setting": "[4]; [13]", "result": "−0.42", "unit": "logCFU/thigh"}, {"measurement": "Average Change logCFU/thigh", "setting": "[4]; [14]", "result": "−0.62", "unit": "logCFU/thigh"}, {"measurement": "Average Change logCFU/thigh", "setting": "[4]; [15]", "result": "−0.77", "unit": "logCFU/thigh"}]}]}
